Source: US9566224B2, “Tyrosinase inhibitors” (Avon Products, Inc., priority 2013, dated 2017)

System: Mushroom tyrosinase
Test: Mushroom tyrosinase assay (conversion of L-Tyrosine to DOPAchrome)
Format: biochemical
Settings: 25° C., 30 min, absorbance 492 nm
Protocol: Mushroom Tyrosinase Assay. Mushroom tyrosinase and L-Tyrosine were obtained from Sigma-Aldrich, Inc. (St. Louis, Mo.). The enzyme activity was measured in buffer containing 100 mM phosphate buffer pH 6.8, 5% absolute ethanol, 2 micrograms/milliliter mushroom tyrosinase, and 0.2 mg/ml L-Tyrosine. The reaction (conversion of L-Tyrosine to DOPAchrome) was conducted in triplicates at 25° C. for 30 min, and absorbance was then measured at 492 nm. Kojic Acid was used as a positive control inhibitor in these assays. Percent change in tyrosinase activity relative to vehicle control was calculated.

## Oc1ccc(C=NNC(=S)NCC2CCCO2)c(O)c1 (centres unmarked) [AV6989]
Concentration 0.001%
  Tyrosinase Inhibition (percent change in tyrosinase activity compared to DMSO vehicle control): −36%
Concentration 0.01%
  Tyrosinase Inhibition (percent change in tyrosinase activity compared to DMSO vehicle control): −75%
